Assay results as given in US6177253A, “Screening methods for the identification of anti-HIV compounds employing a cyclosporine-specific monoclonal antibody that cross-reacts with HIV-1 p24” (priority 1998, dated 2001).

Key:
Format in all cases: binding, BALB/c mice
G7 1.1 = test: ELISA inhibition by singly modified Cs-derivatives, McAb G7 1.1; conditions: group I; McAb binds selectively to Thr^2 -Cs-BSA coating
Procedure: (§1) A second ELISA Procedure used conjugates of D-Lys^8 -Cs-BSA and Thr^2 -Cs-BSA for coating (Queeniaux et al., 1987b). An indirect detection system consisting of rabbit anti-mouse Ig followed by alkaline phosphates-conjugated goat anti-rabbit IgG was performed as previously described (Queenlaux et al., 1987b).
(§2) The binding of the 22 McAbs to these two Cs-BSA conjugates was also found to correlate well with their fine specificity patterns, as characterized with a set of 28-36 Cs derivatives. Typical ELISA curves showing McAb binding either to D-Lys^8 -Cs-BSA (panel A) or to Thr^2 -Ca-BSA (panel B) and inhibited by Cs or Cs derivatives are shown in FIGS. 8A-8B, D-Lys^8 -Cs-BSA was subsequently used for coating in the inhibition experiments, except for those McAbs binding selectively to Thr^2 -Cs-BSA (see Table 4 and FIGS. 7A-7C). An example of the binding of 26 Cs derivatives by McAbs belonging to each of the five specificity groups mentioned above is reported in Table 5. The results are expressed as the difference of IC50 (in log10) between the Cs derivatives and Cs. All Cs-derivatives used in this study were selected for having a conserved peptide ring conformation compared with CsA (as determined in NMR or X-ray diffraction).

H6 1.5 = test: ELISA inhibition by singly modified Cs-derivatives, McAb H6 1.5; conditions: group III; D-Lys^8 -Cs-BSA coating
Procedure: as §1, §2

B11 1.4 = test: ELISA inhibition by singly modified Cs-derivatives, McAb B11 1.4; conditions: group IV; D-Lys^8 -Cs-BSA coating
Procedure: as §1, §2

C4 2.2 = test: ELISA inhibition by singly modified Cs-derivatives, McAb C4 2.2; conditions: group V; McAb binds selectively to Thr^2 -Cs-BSA coating
Procedure: as §1, §2

H4 1.3 = test: ELISA inhibition by singly modified Cs-derivatives, McAb H4 1.3; conditions: group II; D-Lys^8 -Cs-BSA coating
Procedure: as §1, §2

Row | SMILES | log10 difference in the concentrations of Cs-derivatives and unmodified Cs required to achieve 50% inhibition in ELISA, McAb G7 1.1 (G7 1.1) [log10] | log10 difference in the concentrations of Cs-derivatives and unmodified Cs required to achieve 50% inhibition in ELISA, McAb H6 1.5 (H6 1.5) [log10] | log10 difference in the concentrations of Cs-derivatives and unmodified Cs required to achieve 50% inhibition in ELISA, McAb B11 1.4 (B11 1.4) [log10] | log10 difference in the concentrations of Cs-derivatives and unmodified Cs required to achieve 50% inhibition in ELISA, McAb C4 2.2 (C4 2.2) [log10] | log10 difference in the concentrations of Cs-derivatives and unmodified Cs required to achieve 50% inhibition in ELISA, McAb H4 1.3 (H4 1.3) [log10]
1 | C/C=C/C[C@@H](C)[C@@H](O)[C@H]1C(=O)N[C@@H](C)C(=O)N(C)CC(=O)N(C)[C@@H](CC(C)C)C(=O)N[C@@H](C(C)C)C(=O)N(C)[C@@H](CC(C)C)C(=O)N[C@@H](C)C(=O)N[C@H](C)C(=O)N(C)[C@@H](CC(C)C)C(=O)N(C)[C@@H](CC(C)C)C(=O)N(C)[C@@H](C(C)C)C(=O)N1C [Abu^2 Ala] | 0.2 | 0.0 | 0.4 | 0.1 | 
2 | C/C=C/C[C@@H](C)[C@@H](O)[C@H]1C(=O)N[C@@H](CO)C(=O)N(C)CC(=O)N(C)[C@@H](CC(C)C)C(=O)N[C@@H](C(C)C)C(=O)N(C)[C@@H](CC(C)C)C(=O)N[C@@H](C)C(=O)N[C@H](C)C(=O)N(C)[C@@H](CC(C)C)C(=O)N(C)[C@@H](CC(C)C)C(=O)N(C)[C@@H](C(C)C)C(=O)N1C [Abu^2 Ser] | < 0.0 | 0.6 | 0.0 | 0.2 | 0.9
3 | C/C=C/C[C@@H](C)[C@@H](O)[C@H]1C(=O)N[C@@H]([C@H](C)O)C(=O)N(C)CC(=O)N(C)[C@@H](CC(C)C)C(=O)N[C@@H](C(C)C)C(=O)N(C)[C@@H](CC(C)C)C(=O)N[C@@H](C)C(=O)N[C@H](C)C(=O)N(C)[C@@H](CC(C)C)C(=O)N(C)[C@@H](CC(C)C)C(=O)N(C)[C@@H](C(C)C)C(=O)N1C [Abu^2 aThr] | < 0.0 | 1.1 | 0.0 | 0.3 | 1.5
4 | C/C=C/C[C@@H](C)[C@@H](O)[C@H]1C(=O)N[C@@H](CC)C(=O)N(C)CC(=O)N(C)[C@@H](CC(C)C)C(=O)N[C@@H](C(C)C)C(=O)N(C)[C@@H](CC(C)C)C(=O)N[C@@H](CC)C(=O)N[C@H](C)C(=O)N(C)[C@@H](CC(C)C)C(=O)N(C)[C@@H](CC(C)C)C(=O)N(C)[C@@H](C(C)C)C(=O)N1C [Ala^7 Abu] | < 0.0 | 0.0 | 0.0 | < 0.0 | 0.0
5 | C/C=C/C[C@@H](C)[C@@H](O)[C@H]1C(=O)N[C@@H](CC)C(=O)N(C)CC(=O)N(C)[C@@H](CC(C)C)C(=O)N[C@@H](C(C)C)C(=O)N(C)[C@@H](CC(C)C)C(=O)N[C@@H](C)C(=O)N[C@H](CCCCNC(=O)OC(C)(C)C)C(=O)N(C)[C@@H](CC(C)C)C(=O)N(C)[C@@H](CC(C)C)C(=O)N(C)[C@@H](C(C)C)C(=O)N1C [D-Ala^8 Boc-D-Lys] | 2.0 | 0.0 | 0.3 | 1.2 | 0.6
6 | C/C=C/C[C@@H](C)[C@@H](O)[C@H]1C(=O)N[C@@H](CC)C(=O)N(C)CC(=O)N(C)[C@@H](CC(C)C)C(=O)N[C@@H](C(C)C)C(=O)N(C)[C@@H](CC(C)C)C(=O)N[C@@H](C)C(=O)N[C@H](CO)C(=O)N(C)[C@@H](CC(C)C)C(=O)N(C)[C@@H](CC(C)C)C(=O)N(C)[C@@H](C(C)C)C(=O)N1C [D-Ala^8 D-Ser] | 1.3 | < 0.0 | 0.1 | 0.3 | 0.0
7 | C/C=C/C[C@@H](C)[C@@H](O)[C@H]1C(=O)N[C@@H](CC)C(=O)N(C)CC(=O)N(C)[C@@H](CC(C)C)C(=O)N[C@@H](C(C)C)C(=O)N(C)[C@@H](CC(C)C)C(=O)N[C@@H](C)C(=O)N[C@H]([C@H](C)O)C(=O)N(C)[C@@H](CC(C)C)C(=O)N(C)[C@@H](CC(C)C)C(=O)N(C)[C@@H](C(C)C)C(=O)N1C [D-Ala^8 D-Thr] | > 2.0 | < 0.0 | 0.4 | 1.2 | 0.0
8 | C/C=C/C[C@@H](C)[C@@H](O)[C@H]1C(=O)N[C@@H](CC)C(=O)N(C)CC(=O)N(C)[C@@H](CC(C)C)C(=O)N[C@@H](C(C)C)C(=O)N(C)[C@@H](CC(C)C)C(=O)N[C@@H](C)C(=O)N[C@H](C)C(=O)N(C)[C@@H](CC(C)C)C(=O)N(C)[C@@H](C)C(=O)N(C)[C@@H](C(C)C)C(=O)N1C [MeAla^10 MeAla] | < 0.0 | 0.0 | 0.1 | 0.8 | 0.4
9 | C/C=C/C[C@@H](C)[C@@H](O)[C@H]1C(=O)N[C@@H](CC)C(=O)N(C)CC(=O)N(C)[C@@H](CC(C)C)C(=O)N[C@@H](C(C)C)C(=O)N(C)[C@@H](CC(C)C)C(=O)N[C@@H](C)C(=O)N[C@H](C)C(=O)N(C)[C@@H](CC(C)C)C(=O)N(C)[C@@H](Cc2ccccc2)C(=O)N(C)[C@@H](C(C)C)C(=O)N1C [MeAla^10 MePhe] | < 0.0 | 0.2 | 1.6 | 1.3 | 0.5
10 | C/C=C/C[C@@H](C)[C@@H](OC(C)=O)[C@H]1C(=O)N[C@@H](CC)C(=O)N(C)CC(=O)N(C)[C@@H](CC(C)C)C(=O)N[C@@H](C(C)C)C(=O)N(C)[C@@H](CC(C)C)C(=O)N[C@@H](C)C(=O)N[C@H](C)C(=O)N(C)[C@@H](CC(C)C)C(=O)N(C)[C@@H](CC(C)C)C(=O)N(C)[C@@H](C(C)C)C(=O)N1C [MeBint^1 3'-O-acetyl] | 0.1 | 0.6 | 0.7 | 0.2 | 1.1
11 | C/C=C/C[C@@H](C)C[C@H]1C(=O)N[C@@H](CC)C(=O)N(C)CC(=O)N(C)[C@@H](CC(C)C)C(=O)N[C@@H](C(C)C)C(=O)N(C)[C@@H](CC(C)C)C(=O)N[C@@H](C)C(=O)N[C@H](C)C(=O)N(C)[C@@H](CC(C)C)C(=O)N(C)[C@@H](CC(C)C)C(=O)N(C)[C@@H](C(C)C)C(=O)N1C [MeBint^1 3'desoxy] | 0.6 | 0.0 | 0.4 | < 0.0 | 1.2
